Laboratory results as given in patent US10150772B2, “Crystalline forms of PARP inhibitors” (priority 2014, dated 2018).
“Also recorded” adds a separate entry of the source. Where a name gives a salt, the structure may show the parent alone. Read-outs that look alike come from different tables or passages of the source.

Legend:
[1] = Estimation of water solubility; assay type: physicochemical; conditions: visual inspection, 10 mg sample
Description: Estimation of Water Solubility: Ten mg portions of the salt forms to be studied were weighed into a standard 1.5 mL HPLC vial (32×11.6 mm). […] An estimation of solubility was based on the volume of water necessary to dissolve the known weight of sample.

[2] = assay type: physicochemical; design: DSC: unit not given beside the values; conditions: 40° C. and 75% RH; for Stability to the test conditions (in words): 28 day test period
Description: Identity, Assay, and Purity by HPLC
Testing was performed on a calibrated and validated Agilent 1200 Rapid Resolution High Performance Liquid Chromatography (HPLC) system designated LC-0430-AD or LC-418-1D. The system comprises a binary SL pump, degasser, high performance autosampler SL with a fraction collector, thermostated column compartment with a 2 valve column switcher, and a DAD SL detector. All standard solutions and samples were prepared in Class A glass volumetric flasks and were placed in autosampler vials. Standard weighings were done using a calibrated Mettler analytical balance. The sample preparations were centrifuged using an Eppendorf microcentrifuge. The primary chromatography data was acquired and integrated using Empower 2 software. Microsoft Office Excel 2003 was used for the calculation of results.
Solid State Stability of Salts at 40° C. and 75% Humidity:
Samples of the form to be studied (15-20 mg) were weighed into standard 1.5 mL HPLC vials (32×11.6 mm) and stored uncapped for 0, 7, 14 and 28 days in a 40° C. and 75% RH stability chamber. Samples were removed on the indicated day and capped. Measurements of XRPD, DSC, TGA and HPLC Identity by Purity and Assay measurements were completed on each time point sample.

[3] = Dynamic vapor sorption (DVS), water sorption; assay type: physicochemical; conditions: DVS; for Total uptake (moisture): entire RH range
Description: Dynamic Vapor Sorption (DVS):
DVS experiments have been carried out using the DVS-HT instrument (Surface Measurement Systems, London, UK). This instrument measures the uptake and loss of vapor gravimetrically using a recording ultra-microbalance with a mass resolution of ±0.1 μg. The vapor partial pressure (±1.0%) around the sample is controlled by mixing saturated and dry carrier gas streams using electronic mass flow controllers. The desired temperature is maintained at ±0.1° C. The samples (1-10 mg) were placed into the DVS-HT and DVS-1 instruments at the desired temperature.
The sample was loaded and unloaded at 40% RH and 25° C. (typical room conditions). A moisture sorption isotherm was performed as outlined below (2 scans giving 1 complete cycle). The software uses a least squares minimization procedure together with a model of the mass relaxation, to predict an asymptotic value. The measured mass equilibration value must be within 2% of that predicted by the software before proceeding to the next % RH value. The minimum equilibration time was set to 1 hour and the maximum to 4 hours.

COc1cccc2[nH]c3c4c(c5c(c3c12)C(=O)N(CN1CCN(C)CC1)C5=O)CCC4 [Sample 13-6]
Estimated Water Solubility [1]: >100 mg/mL

COc1cccc2[nH]c3c4c(c5c(c3c12)C(=O)N(CN1CCN(C)CC1)C5=O)CCC4 [Sample 13-10]
Estimated Water Solubility [1]: 10 to 20 mg/mL

COc1cccc2[nH]c3c4c(c5c(c3c12)C(=O)N(CN1CCN(C)CC1)C5=O)CCC4 [Sample 13-8]
Estimated Water Solubility [1]: >100 mg/mL

COc1cccc2[nH]c3c4c(c5c(c3c12)C(=O)N(CN1CCN(C)CC1)C5=O)CCC4 [Sample 30-3]
Estimated Water Solubility [1]: >100 mg/mL

COc1cccc2[nH]c3c4c(c5c(c3c12)C(=O)N(CN1CCN(C)CC1)C5=O)CCC4 [Sample 30-1]
Estimated Water Solubility [1]: ~20 mg/mL

COc1cccc2[nH]c3c4c(c5c(c3c12)C(=O)N(CN1CCN(C)CC1)C5=O)CCC4 [Sample 13-3]
Estimated Water Solubility [1]: 50 to 100 mg/mL

COc1cccc2[nH]c3c4c(c5c(c3c12)C(=O)N(CN1CCN(C)CC1)C5=O)CCC4 [Sample 31-4]
Estimated Water Solubility [1]: >100 mg/mL

COc1cccc2[nH]c3c4c(c5c(c3c12)C(=O)N(CN1CCN(C)CC1)C5=O)CCC4 [39-2(2)]
Estimated Water Solubility [1]: >100 mg/mL

COc1cccc2[nH]c3c4c(c5c(c3c12)C(=O)N(CN1CCN(C)CC1)C5=O)CCC4 [Acetate Salt, Form A1.5]
Stability to the test conditions (in words) [2]: changes throughout the 28 day test period
HPLC Purity ([2]; day 0): 99.7%
TGA ([2]; day 0): 21.5%
COMPOUND A Assay ([2]; day 0, HPLC): 78.1%
COMPOUND B Assay ([2]; day 0, HPLC): 0.2%
HPLC Purity ([2]; day 7): 99.6%
TGA ([2]; day 7): 20.0%
XRPD ([2]; day 7): Shows hydrate
COMPOUND A Assay ([2]; day 7, HPLC): 70.2%
COMPOUND B Assay ([2]; day 7, HPLC): 0.1%
HPLC Purity ([2]; day 14): 99.5%
TGA ([2]; day 14): 16.1%
XRPD ([2]; day 14): Shows hydrate
COMPOUND A Assay ([2]; day 14, HPLC): 84.2%
COMPOUND B Assay ([2]; day 14, HPLC): 0.2%
HPLC Purity ([2]; day 28): 99.6%
TGA ([2]; day 28): 9.6%
XRPD ([2]; day 28): Shows hydrate,
COMPOUND A Assay ([2]; day 28, HPLC): 90.9%
COMPOUND B Assay ([2]; day 28, HPLC): 0.3%
DVS sorption behaviour (in words) ([3]; 25° C.): steady weight loss during the drying curves with no equilibration reached

COc1cccc2[nH]c3c4c(c5c(c3c12)C(=O)N(CN1CCN(C)CC1)C5=O)CCC4 [Sample 39-1]
Estimated Water Solubility [1]: ~50 mg/mL

COc1cccc2[nH]c3c4c(c5c(c3c12)C(=O)N(CN1CCN(C)CC1)C5=O)CCC4 [Sample 31-2]
Estimated Water Solubility [1]: >100 mg/mL

COc1cccc2[nH]c3c4c(c5c(c3c12)C(=O)N(CN1CCN(C)CC1)C5=O)CCC4 [39-5(2)]
Estimated Water Solubility [1]: >100 mg/mL

COc1cccc2[nH]c3c4c(c5c(c3c12)C(=O)N(CN1CCN(C)CC1)C5=O)CCC4 [L-Pyroglutamate Salt, Form A1]
Stability to the test conditions (in words) [2]: stable over a 28 day test period, except for a slow increase in Compound B content
DVS sorption behaviour (in words) ([3]; 25° C.): massive uptake in moisture
Total uptake (moisture) ([3]; 25° C.): ~27%
Water absorption, first cycle ([3]; RH range of 40-75%): ~2%

COc1cccc2[nH]c3c4c(c5c(c3c12)C(=O)N(CN1CCN(C)CC1)C5=O)CCC4 [Sample 13-7]
Estimated Water Solubility [1]: 50 to 100 mg/mL

COc1cccc2[nH]c3c4c(c5c(c3c12)C(=O)N(CN1CCN(C)CC1)C5=O)CCC4 [Sample 39-3]
Estimated Water Solubility [1]: >100 mg/mL

COc1cccc2[nH]c3c4c(c5c(c3c12)C(=O)N(CN1CCN(C)CC1)C5=O)CCC4 [Glycolate Salt Hydrate, Form A1]
Stability to the test conditions (in words) [2]: fairly stable to the test conditions; also recorded: generated the least amount of Compound B
HPLC Purity ([2]; day 0): 99.8%
TGA ([2]; day 0): 2.1%
COMPOUND A Assay ([2]; day 0, HPLC): 69.9%
COMPOUND B Assay ([2]; day 0, HPLC): 0.1%
HPLC Purity ([2]; day 7): 99.6%
TGA ([2]; day 7): 2.3%
XRPD ([2]; day 7): No change
COMPOUND A Assay ([2]; day 7, HPLC): 68.4%
COMPOUND B Assay ([2]; day 7, HPLC): 0.1%
HPLC Purity ([2]; day 14): 99.7%
TGA ([2]; day 14): 2.6%
XRPD ([2]; day 14): No change
COMPOUND A Assay ([2]; day 14, HPLC): 73.2%
COMPOUND B Assay ([2]; day 14, HPLC): 0.2%
HPLC Purity ([2]; day 28): 99.5%
TGA ([2]; day 28): 3.5%
XRPD ([2]; day 28): No change
COMPOUND A Assay ([2]; day 28, HPLC): 66.8%
COMPOUND B Assay ([2]; day 28, HPLC): 0.6%
DVS sorption behaviour (in words) ([3]; 25° C.): surface adsorption with limited bulk absorption throughout the entire RH range
Total uptake in moisture at 90% RH ([3]; 25° C., 90% RH): ~3.5%

COc1cccc2[nH]c3c4c(c5c(c3c12)C(=O)N(CN1CCN(C)CC1)C5=O)CCC4 [39-1(2)]
Estimated Water Solubility [1]: ~25 mg/mL

COc1cccc2[nH]c3c4c(c5c(c3c12)C(=O)N(CN1CCN(C)CC1)C5=O)CCC4 [L-Malate Salt, Form A1]
Stability to the test conditions (in words) [2]: stable to the test conditions
HPLC Purity ([2]; day 0): 99.5%
TGA ([2]; day 0): 0.1%
COMPOUND A Assay ([2]; day 0, HPLC): 69.9%
COMPOUND B Assay ([2]; day 0, HPLC): 0.2%
HPLC Purity ([2]; day 7): 99.3%
TGA ([2]; day 7): 0.2%
XRPD ([2]; day 7): No change
COMPOUND A Assay ([2]; day 7, HPLC): 71.8%
COMPOUND B Assay ([2]; day 7, HPLC): 0.4%
HPLC Purity ([2]; day 14): 98.8%
TGA ([2]; day 14): 0.8%
XRPD ([2]; day 14): No change
COMPOUND A Assay ([2]; day 14, HPLC): 72.0%
COMPOUND B Assay ([2]; day 14, HPLC): 0.5%
HPLC Purity ([2]; day 28): 98.4%
TGA ([2]; day 28): 0.3%
XRPD ([2]; day 28): No change
COMPOUND A Assay ([2]; day 28, HPLC): 71.7%
COMPOUND B Assay ([2]; day 28, HPLC): 0.8%
DVS sorption behaviour (in words) ([3]; 25° C.): very little water absorption during the first cycle from 40% RH to 70% RH
Total uptake (moisture) ([3]; 25° C.): ~2%

COc1cccc2[nH]c3c4c(c5c(c3c12)C(=O)N(CN1CCN(C)CC1)C5=O)CCC4 [Sample 30-2]
Estimated Water Solubility [1]: >100 mg/mL

COc1cccc2[nH]c3c4c(c5c(c3c12)C(=O)N(CN1CCN(C)CC1)C5=O)CCC4 [Sample 13-9]
Estimated Water Solubility [1]: <10 mg/mL

COc1cccc2[nH]c3c4c(c5c(c3c12)C(=O)N(CN1CCN(C)CC1)C5=O)CCC4 [Sample 39-2]
Estimated Water Solubility [1]: <10 mg/mL

COc1cccc2[nH]c3c4c(c5c(c3c12)C(=O)N(CN1CCN(C)CC1)C5=O)CCC4 [Sample 30-4]
Estimated Water Solubility [1]: >100 mg/mL

COc1cccc2[nH]c3c4c(c5c(c3c12)C(=O)N(CN1CCN(C)CC1)C5=O)CCC4 [Sample 39-5]
Estimated Water Solubility [1]: >100 mg/mL

COc1cccc2[nH]c3c4c(c5c(c3c12)C(=O)N(CN1CCN(C)CC1)C5=O)CCC4.O=C1CC[C@@H](C(=O)O)N1
COMPOUND A Assay ([2]; day 0): 65.5%
COMPOUND B Assay ([2]; day 0): 0.6%
DSC ([2]; day 0): 198.2
HPLC Purity ([2]; day 0): 98.6%
TGA ([2]; day 0): 0.49%
COMPOUND A Assay ([2]; day 7): 71.4%
COMPOUND B Assay ([2]; day 7): 0.6%
DSC ([2]; day 7): 199.0
HPLC Purity ([2]; day 7): 98.7%
TGA ([2]; day 7): 0.54%
XRPD ([2]; day 7): No change
COMPOUND A Assay ([2]; day 14): 60.2%
COMPOUND B Assay ([2]; day 14): 0.8%
DSC ([2]; day 14): 198.3
HPLC Purity ([2]; day 14): 98.2%
TGA ([2]; day 14): 0.64%
XRPD ([2]; day 14): No change
COMPOUND A Assay ([2]; day 28): 64.0%
COMPOUND B Assay ([2]; day 28): 1.2%
DSC ([2]; day 28): 198.4
HPLC Purity ([2]; day 28): 97.2%
XRPD ([2]; day 28): No change

COc1cccc2[nH]c3c4c(c5c(c3c12)C(=O)N(CN1CCN(C)CC1)C5=O)CCC4 [Sample 13-5]
Estimated Water Solubility [1]: <10 mg/mL

COc1cccc2[nH]c3c4c(c5c(c3c12)C(=O)N(CN1CCN(C)CC1)C5=O)CCC4 [39-3(2)]
Estimated Water Solubility [1]: >100 mg/mL

COc1cccc2[nH]c3c4c(c5c(c3c12)C(=O)N(CN1CCN(C)CC1)C5=O)CCC4 [Sample 39-4]
Estimated Water Solubility [1]: >100 mg/mL

COc1cccc2[nH]c3c4c(c5c(c3c12)C(=O)N(CN1CCN(C)CC1)C5=O)CCC4 [Sample 31-5]
Estimated Water Solubility [1]: ~25 mg/mL

COc1cccc2[nH]c3c4c(c5c(c3c12)C(=O)N(CN1CCN(C)CC1)C5=O)CCC4 [Sample 30-5]
Estimated Water Solubility [1]: ~25 mg/mL

COc1cccc2[nH]c3c4c(c5c(c3c12)C(=O)N(CN1CCN(C)CC1)C5=O)CCC4 [Sample 31-1]
Estimated Water Solubility [1]: ~25 mg/mL

COc1cccc2[nH]c3c4c(c5c(c3c12)C(=O)N(CN1CCN(C)CC1)C5=O)CCC4 [Sample 31-3]
Estimated Water Solubility [1]: >100 mg/mL

COc1cccc2[nH]c3c4c(c5c(c3c12)C(=O)N(CN1CCN(C)CC1)C5=O)CCC4 [Sample 13-4]
Estimated Water Solubility [1]: <10 mg/mL
